IC50 data for 14 compounds are collected here from patent US20090304692A1, “TRIAZINE COMPOUNDS AS PI3 KINASE AND MTOR INHIBITORS” (Wyeth, priority 2008, published 2009).

Values joined by “and” are separate entries in the source; they are usually repeats but may differ in a detail not shown here. Equal entries are not always repeated. Where two headings read alike, the source gives them in different places.

For experiment [1], the system named is human prostate PC3-mm2 tumor cell line. The experiment can be described thus: In vitro cell culture growth assay (MTS), PC3-mm2. Type of experiment: cell-based. The settings on record: Homo sapiens, PC3MM2, 72 h, MTS cell growth assay, three days after drug treatment, read-out: IC50 PC3-mm2. Background: Tetrazolium assays rely on reduction of a dye to a coloured formazan, in cell work by metabolically active cells.

Experiment [2] addresses PI3K-γ (Homo sapiens, UniProt P48736). The experiment is described as follows: PI3K-gamma fluorescence polarization assay. The note with it: read-out: IC50 PI3Kγ.
Experiment [3] relates to human breast MDA-MB-361 tumor cell line. The experiment is described as follows: In vitro cell culture growth assay (MTS), MDA-MB-361. The settings on record: Homo sapiens, MDA-MB-361, 72 h, MTS cell growth assay, three days after drug treatment, read-out: IC50 MDA-MB-361. In kind it is cell-based.
Experiment [4] addresses Human mTOR (FLAG-TOR) (Homo sapiens, UniProt P42345). The experiment can be described thus: mTOR kinase assay (DELFIA format, purified enzyme). In kind it is biochemical. The settings on record: read-out: IC50 mTOR.
The target in experiment [5] is PI3K-α (Homo sapiens, UniProt P42336). The experiment is described as follows: PI3K-alpha fluorescence polarization assay. On the technique in general: Fluorescence polarisation rises when a labelled molecule tumbles more slowly, as on binding a larger partner.
Sequence of PI3K-α (P42336 whole entry, species assumed): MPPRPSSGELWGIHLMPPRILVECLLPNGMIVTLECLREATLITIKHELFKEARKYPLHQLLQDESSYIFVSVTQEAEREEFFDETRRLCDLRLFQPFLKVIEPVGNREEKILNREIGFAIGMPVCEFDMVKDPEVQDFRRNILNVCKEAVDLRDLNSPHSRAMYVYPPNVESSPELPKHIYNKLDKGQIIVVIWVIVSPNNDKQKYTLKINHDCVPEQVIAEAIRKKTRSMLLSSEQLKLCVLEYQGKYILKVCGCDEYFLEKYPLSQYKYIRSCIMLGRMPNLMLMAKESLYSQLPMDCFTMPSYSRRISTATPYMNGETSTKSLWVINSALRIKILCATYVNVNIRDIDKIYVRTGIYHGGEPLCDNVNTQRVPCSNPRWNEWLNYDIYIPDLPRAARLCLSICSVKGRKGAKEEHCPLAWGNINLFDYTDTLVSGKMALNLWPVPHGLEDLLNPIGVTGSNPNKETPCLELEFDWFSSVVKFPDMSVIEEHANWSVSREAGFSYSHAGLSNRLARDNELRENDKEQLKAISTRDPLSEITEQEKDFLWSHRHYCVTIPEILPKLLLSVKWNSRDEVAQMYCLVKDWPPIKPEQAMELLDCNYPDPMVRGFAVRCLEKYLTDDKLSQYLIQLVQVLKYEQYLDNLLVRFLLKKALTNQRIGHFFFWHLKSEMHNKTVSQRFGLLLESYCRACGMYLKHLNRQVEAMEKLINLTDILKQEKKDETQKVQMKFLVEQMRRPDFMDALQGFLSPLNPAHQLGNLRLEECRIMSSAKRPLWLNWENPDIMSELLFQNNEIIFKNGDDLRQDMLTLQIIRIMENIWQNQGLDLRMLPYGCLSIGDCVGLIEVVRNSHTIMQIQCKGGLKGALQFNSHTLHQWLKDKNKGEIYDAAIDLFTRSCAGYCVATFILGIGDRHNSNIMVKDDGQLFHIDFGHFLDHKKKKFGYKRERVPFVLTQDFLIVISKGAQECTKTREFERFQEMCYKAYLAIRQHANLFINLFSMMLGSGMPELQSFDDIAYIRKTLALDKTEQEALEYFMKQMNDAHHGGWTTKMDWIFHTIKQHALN
Sequence of PI3K-α (P27986 whole entry partner, species assumed): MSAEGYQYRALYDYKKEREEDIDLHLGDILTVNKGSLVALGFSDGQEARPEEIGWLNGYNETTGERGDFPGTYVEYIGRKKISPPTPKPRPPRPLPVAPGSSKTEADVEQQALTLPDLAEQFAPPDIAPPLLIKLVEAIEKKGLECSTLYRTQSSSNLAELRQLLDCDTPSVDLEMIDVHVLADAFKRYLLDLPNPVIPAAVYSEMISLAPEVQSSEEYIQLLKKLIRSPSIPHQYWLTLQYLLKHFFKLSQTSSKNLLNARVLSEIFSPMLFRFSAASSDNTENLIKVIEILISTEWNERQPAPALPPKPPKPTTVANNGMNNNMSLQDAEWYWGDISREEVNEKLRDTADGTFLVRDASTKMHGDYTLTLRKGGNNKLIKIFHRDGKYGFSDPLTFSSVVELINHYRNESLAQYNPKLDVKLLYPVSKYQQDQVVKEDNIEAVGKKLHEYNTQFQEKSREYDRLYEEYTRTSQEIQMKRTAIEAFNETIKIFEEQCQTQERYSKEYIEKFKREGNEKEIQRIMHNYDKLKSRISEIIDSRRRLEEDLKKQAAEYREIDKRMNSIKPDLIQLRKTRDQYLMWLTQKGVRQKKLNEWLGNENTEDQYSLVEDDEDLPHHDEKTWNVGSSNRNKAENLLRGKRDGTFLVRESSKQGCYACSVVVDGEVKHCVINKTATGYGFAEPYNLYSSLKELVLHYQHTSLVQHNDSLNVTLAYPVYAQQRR

Sequence of PI3K-γ (P48736 whole entry, species assumed): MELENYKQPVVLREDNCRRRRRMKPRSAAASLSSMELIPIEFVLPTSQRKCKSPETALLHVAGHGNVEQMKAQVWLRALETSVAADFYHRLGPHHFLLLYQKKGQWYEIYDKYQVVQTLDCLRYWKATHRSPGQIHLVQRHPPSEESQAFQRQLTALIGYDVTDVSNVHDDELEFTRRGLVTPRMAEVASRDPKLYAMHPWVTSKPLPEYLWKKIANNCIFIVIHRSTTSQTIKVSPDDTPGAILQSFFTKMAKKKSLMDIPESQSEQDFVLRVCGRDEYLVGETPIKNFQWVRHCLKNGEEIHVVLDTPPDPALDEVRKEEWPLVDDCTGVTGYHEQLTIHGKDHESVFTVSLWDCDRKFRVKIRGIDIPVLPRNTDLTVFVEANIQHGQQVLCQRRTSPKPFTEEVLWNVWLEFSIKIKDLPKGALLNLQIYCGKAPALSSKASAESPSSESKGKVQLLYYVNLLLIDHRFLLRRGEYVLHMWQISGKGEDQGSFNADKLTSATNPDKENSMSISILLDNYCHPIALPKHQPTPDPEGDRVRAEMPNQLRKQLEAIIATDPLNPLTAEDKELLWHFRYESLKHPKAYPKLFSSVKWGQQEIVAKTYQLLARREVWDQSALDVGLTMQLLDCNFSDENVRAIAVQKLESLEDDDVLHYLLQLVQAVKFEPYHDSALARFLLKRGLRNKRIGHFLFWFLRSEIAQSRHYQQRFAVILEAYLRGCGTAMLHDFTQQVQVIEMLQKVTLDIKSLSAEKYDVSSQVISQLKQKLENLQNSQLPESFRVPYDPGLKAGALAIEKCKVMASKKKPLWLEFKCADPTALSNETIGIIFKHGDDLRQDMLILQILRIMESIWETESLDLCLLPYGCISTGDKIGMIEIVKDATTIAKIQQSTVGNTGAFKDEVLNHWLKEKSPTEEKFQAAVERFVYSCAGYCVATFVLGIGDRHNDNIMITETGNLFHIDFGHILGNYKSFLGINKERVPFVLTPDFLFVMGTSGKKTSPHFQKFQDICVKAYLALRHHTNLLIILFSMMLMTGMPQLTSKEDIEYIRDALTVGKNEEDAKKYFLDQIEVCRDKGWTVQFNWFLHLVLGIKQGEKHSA
Sequence of Human mTOR (FLAG-TOR) (P42345 1360-2549 limits assumed): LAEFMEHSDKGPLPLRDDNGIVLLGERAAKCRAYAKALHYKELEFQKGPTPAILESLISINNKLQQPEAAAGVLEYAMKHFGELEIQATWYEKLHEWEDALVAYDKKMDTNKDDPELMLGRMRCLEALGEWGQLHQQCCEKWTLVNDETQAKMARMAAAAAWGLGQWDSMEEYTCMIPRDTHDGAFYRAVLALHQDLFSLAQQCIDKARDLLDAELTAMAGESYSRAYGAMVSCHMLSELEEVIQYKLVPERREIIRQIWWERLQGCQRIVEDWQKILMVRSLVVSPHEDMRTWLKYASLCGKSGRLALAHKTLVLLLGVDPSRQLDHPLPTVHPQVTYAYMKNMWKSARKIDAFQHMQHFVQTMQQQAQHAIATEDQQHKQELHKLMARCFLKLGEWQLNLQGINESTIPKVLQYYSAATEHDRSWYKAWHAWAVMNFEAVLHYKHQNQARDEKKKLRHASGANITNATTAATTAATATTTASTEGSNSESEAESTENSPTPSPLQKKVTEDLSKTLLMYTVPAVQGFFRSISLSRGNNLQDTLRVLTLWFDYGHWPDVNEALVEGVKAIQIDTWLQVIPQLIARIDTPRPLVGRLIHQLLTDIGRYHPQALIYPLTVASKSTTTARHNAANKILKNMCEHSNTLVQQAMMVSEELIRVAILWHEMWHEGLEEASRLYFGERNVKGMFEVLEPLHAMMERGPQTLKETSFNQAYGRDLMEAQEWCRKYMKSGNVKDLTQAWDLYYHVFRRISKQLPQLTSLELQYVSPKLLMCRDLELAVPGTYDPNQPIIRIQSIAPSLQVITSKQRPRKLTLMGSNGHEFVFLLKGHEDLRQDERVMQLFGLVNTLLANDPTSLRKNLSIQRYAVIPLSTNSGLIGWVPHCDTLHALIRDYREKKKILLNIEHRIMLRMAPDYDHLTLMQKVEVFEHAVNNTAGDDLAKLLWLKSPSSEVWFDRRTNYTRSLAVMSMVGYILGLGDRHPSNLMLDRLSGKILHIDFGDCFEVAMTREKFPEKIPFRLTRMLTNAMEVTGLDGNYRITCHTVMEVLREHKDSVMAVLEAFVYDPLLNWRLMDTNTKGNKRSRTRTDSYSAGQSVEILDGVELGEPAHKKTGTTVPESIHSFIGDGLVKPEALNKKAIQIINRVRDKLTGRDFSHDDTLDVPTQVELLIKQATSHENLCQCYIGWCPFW

Usually IC50 stands for the midpoint of a concentration-inhibition curve. `CN1CCN(CCCc2nc(-c3ccc(NC(=O)Nc4ccncc4)cc3)nc(N3CCOCC3)n2)CC1` [Example 277, 1-(4-{4-[3-(4-methylpiperazin-1-yl)propyl]-6-morpholin-4-yl-1,3,5-triazin-2-yl}phenyl)-3-pyridin-4-ylurea]: the IC50 in experiment [1] (PC3-mm2 cells) was 572 nM; in experiment [1] it was 572 nM; in experiment [2], 276 nM; in experiment [2] (listed as 734), 210 nM; in experiment [3], 530 nM; in experiment [4], 60 nM and 59.5 nM. Moreover, the IC50 in experiment [5] (read-out: IC50 PI3Kα) amounted to 30 nM; in experiment [5] (read-out: IC50 PI3Kα, listed as 734) it was 25.5 nM.
Take `CN(C)CCNCCCc1nc(-c2ccc(NC(=O)Nc3ccncc3)cc2)nc(N2CCOCC2)n1` [Example 278, 1-{4-[4-(3-{[2-(dimethylamino)ethyl]amino}propyl)-6-morpholin-4-yl-1,3,5-triazin-2-yl]phenyl}-3-pyridin-4-ylurea]: the IC50 is 3700 nM in experiment [1] (PC3-mm2 cells); 3700 nM in experiment [1]; 344 nM in experiment [2]; 290 nM in experiment [2] (listed as 735); 2300 nM in experiment [3]; 250 nM and 123 nM in experiment [4]. The IC50 in experiment [5] (read-out: IC50 PI3Kα) amounted to 26 nM; in experiment [5] (read-out: IC50 PI3Kα, listed as 735), 26.5 nM.
As for `O=C(Nc1ccncc1)Nc1ccc(-c2nc(CCCO)nc(N3CCOCC3)n2)cc1` [Example 279, 1-{4-[4-(3-hydroxypropyl)-6-morpholin-4-yl-1,3,5-triazin-2-yl]phenyl}-3-pyridin-4-ylurea], the IC50 was 247 nM in experiment [1] (PC3-mm2 cells); 247 nM in experiment [1]; 70 nM in experiment [2]; 53.5 nM in experiment [2] (listed as 736); 176 nM in experiment [3]; 35 nM and 3.6 nM in experiment [4]. The IC50 is 10 nM in experiment [5] (read-out: IC50 PI3Kα) and 9.5 nM in experiment [5] (read-out: IC50 PI3Kα, listed as 736).
`O=CCCc1nc(-c2ccc(NC(=O)Nc3ccncc3)cc2)nc(N2CCOCC2)n1` [Example 280, 1-{4-[4-morpholin-4-yl-6-(3-oxopropyl)-1,3,5-triazin-2-yl]phenyl}-3-pyridin-4-ylurea]: the half-maximal inhibitory concentration (IC50) was 404 nM in experiment [1] (PC3-mm2 cells); 404 nM in experiment [1]; 29 nM in experiment [2]; 30 nM in experiment [2] (listed as 737); 176 nM in experiment [3]; 4 nM and 4.45 nM in experiment [4]. Further, the IC50 in experiment [5] (read-out: IC50 PI3Kα) stood at 5 nM; in experiment [5] (read-out: IC50 PI3Kα, listed as 737) it was 7 nM.
As for `O=C(Nc1ccncc1)Nc1ccc(-c2nc(N3CCOCC3)nc(N3CC4COC(C3)O4)n2)cc1` (centres unmarked) [Example 282, 1-{4-[4-(6,8-dioxa-3-azabicyclo[3.2.1]oct-3-yl)-6-morpholin-4-yl-1,3,5-triazin-2-yl]phenyl}-3-pyridin-4-ylurea], the 50% inhibitory concentration (IC50) in experiment [1] (PC3-mm2 cells) was 84 nM; in experiment [1], 84 nM; in experiment [2] it was 32 nM; in experiment [2] (listed as 740) it was 34.5 nM; in experiment [3], 83 nM; in experiment [4], 4.7 nM and 4.05 nM. Besides, the IC50 in experiment [5] (read-out: IC50 PI3Kα) was determined as 10 nM; in experiment [5] (read-out: IC50 PI3Kα, listed as 740), 11.5 nM.
Regarding `CN(C)C1CCN(C(=O)c2ccc(NC(=O)Nc3ccc(-c4nc(C5=CCOCC5)nc(N5CCOCC5)n4)cc3)cc2)CC1` [Example 283, 1-{4-[4-(3,6-dihydro-2H-pyran-4-yl)-6-morpholin-4-yl-1,3,5-triazin-2-yl]phenyl}-3-(4-{[4-(dimethylamino)piperidin-1-yl]carbonyl}phenyl)urea], the 50% inhibitory concentration (IC50) in experiment [1] (PC3-mm2 cells) stood at 33.3 nM; in experiment [1], 33.3 nM; in experiment [2], 11 nM; in experiment [2] (listed as 505), 5 nM; in experiment [3] (MDA-MB-361 cells), 12.3 nM; in experiment [3], 12.3 nM. Further, the IC50 worked out at 3.1 nM in experiment [4]; 1 nM in experiment [5] (read-out: IC50 PI3Kα); 0.6 nM in experiment [5] (read-out: IC50 PI3Kα, listed as 505).
Consider `CN(C)CCNC(=O)c1ccc(NC(=O)Nc2ccc(-c3nc(C4=CCOCC4)nc(N4CCOCC4)n3)cc2)cc1` [Example 284, 4-[({4-[4-(3,6-dihydro-2H-pyran-4-yl)-6-morpholin-4-yl-1,3,5-triazin-2-yl]phenyl}carbamoyl)amino]-N-[2-(dimethylamino)ethyl]benzamide], for which the IC50 in experiment [1] (PC3-mm2 cells) was 36.3 nM; in experiment [1], 36.3 nM; in experiment [2], 12 nM; in experiment [2] (listed as 508), 12.5 nM; in experiment [3], 12 nM; in experiment [4], 0.9 nM and 0.97 nM. Further, the figures for the 50% inhibitory concentration (IC50) in experiment [5] and in experiment [5] (read-out: IC50 PI3Kα) were less than 1.9 nM and 0.7 nM, respectively.
With `CCCc1nc(-c2ccc(NC(=O)Nc3ccc(N4CCN(C)CC4)cc3)cc2)nc(N2CCOCC2)n1` [Example 294, 1-[4-(4-methylpiperazin-1-yl)phenyl]-3-[4-(4-morpholin-4-yl-6-propyl-1,3,5-triazin-2-yl)phenyl]urea], the IC50 in experiment [1] was 154 nM; in experiment [2], 26 nM; in experiment [3] it was 69 nM; in experiment [4], 18 nM; in experiment [5] (read-out: IC50 PI3Kα), 9 nM.
In the same order, the values of `CCc1nc(-c2ccc(NC(=O)Nc3ccc(OCCN(C)C)cc3)cc2)nc(N2CCOCC2)n1` [Example 295, 1-{4-[2-(dimethylamino)ethoxy]phenyl}-3-[4-(4-ethyl-6-morpholin-4-yl-1,3,5-triazin-2-yl)phenyl]urea] are 189 nM, 81 nM, 133 nM, 29 nM and 19 nM.
In the same order, the values of `CCc1nc(-c2ccc(NC(=O)Nc3ccc(N4CCN(C)CC4)cc3)cc2)nc(N2CCOCC2)n1` [Example 296, 1-[4-(4-ethyl-6-morpholin-4-yl-1,3,5-triazin-2-yl)phenyl]-3-[4-(4-methylpiperazin-1-yl)phenyl]urea] are 133 nM, 35 nM, 83 nM, 21 nM and 13 nM.
In the same order, the values of `CC(C)Cc1nc(-c2ccc(NC(=O)Nc3ccc(N4CCN(C)CC4)cc3)cc2)nc(N2CCOCC2)n1` [Example 297, 1-[4-(4-methylpiperazin-1-yl)phenyl]-3-{4-[4-(2-methylpropyl)-6-morpholin-4-yl-1,3,5-triazin-2-yl]phenyl}urea] are 290 nM, 70 nM, 115 nM, 10 nM and 38 nM.
With `CCc1nc(-c2ccc(NC(=O)Nc3ccc(C(=O)N4CCNC(C)(C)C4)cc3)cc2)nc(N2CCOCC2)n1` [Example 298, 1-{4-[(3,3-dimethylpiperazin-1-yl)carbonyl]phenyl}-3-[4-(4-ethyl-6-morpholin-4-yl-1,3,5-triazin-2-yl)phenyl]urea], the concentration for half-maximal inhibition (IC50) in experiment [1] was 165 nM; in experiment [2], 24 nM; in experiment [3] it was 38 nM; in experiment [4], 21 nM; in experiment [5] (read-out: IC50 PI3Kα), 2 nM.
`CCc1nc(-c2ccc(NC(=O)Nc3ccc(C(=O)NC4CN(C)C4)cc3)cc2)nc(N2CCOCC2)n1` [Example 299, 4-({[4-(4-ethyl-6-morpholin-4-yl-1,3,5-triazin-2-yl)phenyl]carbamoyl}amino)-N-(1-methylazetidin-3-yl)benzamide]: the IC50 was 219 nM in experiment [1]; 34 nM in experiment [2]; 73 nM in experiment [3]; 80 nM in experiment [4]; 3 nM in experiment [5] (read-out: IC50 PI3Kα).
As to `CC(C)c1nc(-c2ccc(NC(=O)Nc3ccc(C(=O)O)cc3)cc2)nc(N2CCOCC2)n1` [Example 301, 4-[({4-[4-(1-methylethyl)-6-morpholin-4-yl-1,3,5-triazin-2-yl]phenyl}carbamoyl)amino]benzoic acid], the 50% inhibitory concentration (IC50) in experiment [1] came to 759 nM; in experiment [2] it was 58 nM; in experiment [3], 430 nM; in experiment [4] it was 0.8 nM; in experiment [5] (read-out: IC50 PI3Kα), 21 nM.
